The values that follow are results of earlier work, collected in patent US20050227949A1, “Compositions and methods for treatment of viral and bacterial infections” (priority 2004, published 2005).

In one data set the test system is suppressor T-cells. The note with it: further reported uses; probably due to blockade of selected suppressor T-cells.
For a further data set, the system named is HIV. The note with it: previously reported.
For another data set, the system named is herpes simplex. To be noted: previously reported treatment of herpes simplex infections.

As to `CN/C(=N/CCSCc1nc[nH]c1C)NC#N` [cimetidine], in the data set on suppressor T-cells, the immune functions result is “improvements of various immune functions”. The “treatment result in HIV patients” value with HIV was “less encouraging results”. For the same compound, the “outbreak and duration of herpes zoster” value with herpes simplex is “effectively reduced outbreak and duration of herpes zoster”.
